Values of other authors in US20230073516A1, “INTRAORAL FAST-DISINTEGRATING FORMULATION CONTAINING HEMP OIL EXTRACT OR HEMP POWDER EXTRACT AS RAW MATERIAL OF FORMULATION” (CTC SCIENCE INC., priority 2019, published 2023).

Details: absorbed while passing through the gastrointestinal tract

C=C(C)[C@@H]1CCC(C)=C[C@H]1c1c(O)cc(CCCCC)cc1O [cannabidiol]
Bioavailability of cannabidiol: 13-19%
